6 compounds from patent US20080051384A1, “ANTIVIRAL AGENTS” (Genelabs Technologies, Inc., priority 2006, published 2008) can be followed below.

The nature of the experiment: Replicon Assay (luciferase, ET cell line). Format: cell-based, HCV. The note with it: Hepatitis C virus; tested at 6.25 μM; inhibition of replication (luciferase activity) relative to no compound control. On the procedure:
A cell line, ET (Huh-lucubineo-ET) was used for screening of compounds for inhibiting HCV RNA dependent RNA polymerase. The ET cell line was stably transfected with RNA transcripts harboring a I389luc-ubi-neo/NS3-3′/ET; replicon with firefly luciferase-ubiquitin-neomycin phosphotransferase fusion protein and EMCV-IRES driven NS3-5B polyprotein containing the cell culture adaptive mutations (E1202G; T12801; K1846T) (Krieger at al, 2001 and unpublished). The ET cells were grown in DMEM, supplemented with 10% fetal calf serum, 2 mM Glutamine, Penicillin (100 IU/mL)/Streptomycin (100 μg/mL), 1× nonessential amino acids, and 250 μg/mL G418 (“Geneticin”). They are all available through Life Technologies (Bethesda, Md.). The cells were plated at 0.5-1.0×10^4 cells/well in the 96 well plates and incubated for 24 hrs before adding test compound. The compounds were added to the cells to achieve a final concentration of 0.1 nM to 50 μm and a final DMSO concentration of 0.5%. Luciferase activity was measured 48-72 hours later by adding a lysis buffer and the substrate (Catalog number Glo-lysis buffer E2661 and Bright-Glo luciferase system E2620 Promega, Madison, Wis.). Cells should not be too confluent during the assay. Percent inhibition of replication data was plotted relative to no compound control. Under the same condition, cytotoxicity of the compounds were determined using cell proliferation reagent, WST-1 (Roche, Germany). The compounds showing antiviral activities, but no significant cytotoxicities were chosen to determine EC50 and TC50, the effective concentration and toxic concentration at which 50% of the maximum inhibition is observed. For these determinations, a 10 point, 2-fold serial dilution for each compound was used, which spans a concentration range of 1000 fold. EC50 and similarly the TC50 values were calculated by fitting % inhibition at each concentration to the following equation: % inhibition=100%/[(EC50/[I])^b+1] where b is Hill's coefficient.
Turning to `O=C(O)c1cc2c(s1)c(C1=CCCCC1)c(-c1ccc3nc(-c4ccccc4F)ccc3c1)n2CC(=O)N1CCOCC1` [compound 186, 6-Cyclohex-1-enyl-5-[2-(2-fluoro-phenyl)-quinolin-6-yl]-4-(2-morpholin-4-yl-2-oxo-ethyl)-4H-thieno[3,2-b]pyrrole-2-carboxylic acid], the inhibition at 6.25 µM was determined as 75%.
The compound `Cc1nc(C)c(-c2ccc3cc(-c4c(C5=CCCCC5)c5sc(C(=O)O)cc5n4CC(=O)N4CCOCC4)ccc3n2)s1` [compound 187, 6-Cyclohex-1-enyl-5-[2-(2,4-dimethyl-thiazol-5-yl)-quinolin-6-yl]-4-(2-morpholin-4-yl-2-oxo-ethyl)-4H-thieno[3,2-b]pyrrole-2-carboxylic acid] yielded an inhibition at 6.25 µM of 63%.
The result for `O=C(O)c1cc2c(s1)c(C1CCCCC1)c(-c1ccc3nc(-c4ccccc4F)ccc3c1)n2CC(=O)N1CCOCC1` [compound 188, 6-Cyclohexyl-5-[2-(2-fluoro-phenyl)-quinolin-6-yl]-4-(2-morpholin-4-yl-2-oxo-ethyl)-4H-thieno[3,2-b]pyrrole-2-carboxylic acid] reads 99%; that for `Cc1nc(C)c(-c2ccc3cc(-c4c(C5CCCCC5)c5sc(C(=O)O)cc5n4CC(=O)N4CCOCC4)ccc3n2)s1` [compound 189, 6-cyclohexyl-5-[2-(2,4-dimethyl-thiazol-5-yl)-quinolin-6-yl]-4-(2-morpholin-4-yl-2-oxo-ethyl)-4H-thieno[3,2-b]pyrrole-2-carboxylic acid], 100%; that for `Cc1nc(C)c(-c2ccc3cc(-c4c(C5CCCCC5)c5sc(C(=O)O)cc5n4CC(=O)N4CCSCC4)ccc3n2)s1` [compound 190, 6-Cyclohexyl-5-[2-(2,4-dimethyl-thiazol-5-yl)-quinolin-6-yl]-4-(2-oxo-2-thiomorpholin-4-yl-ethyl)-4H-thieno[3,2-b]pyrrole-2-carboxylic acid], 98%.
The result for `Cc1nc(C)c(-c2ccc3cc(-c4c(C5CCCCC5)c5sc(C(=O)O)cc5n4CC(=O)N4CCCCC4)ccc3n2)s1` [compound 191, 6-cyclohexyl-5-[2-(2,4-dimethyl-thiazol-5-yl)-quinolin-6-yl]-4-(2-oxo-2-piperidin-1-yl-ethyl)-4H-thieno[3,2-b]pyrrole-2-carboxylic acid] reads 97%.
